Data on 51 compounds can be found in PMC6272903, “Synthesis and Structure-Activity Relationship Analysis of 5-HT7 Receptor Antagonists: Piperazin-1-yl Substituted Unfused Heterobiaryls” (Molecules, 2016).

The assay deals with T1, human 5-HT7b receptors (Homo sapiens, UniProt P34969).
T1 construct: expressed in transfected cells; host or cells: HEK293
In words: 5-HT7 competition radioligand binding assay ([3H]5-CT). The settings on record: for Ki: read-out: Ki ± S.D. 5-HT7 binding affinity; for inhibition at 1 µM: single compound concentration of 1 µM, HEK293 cells, read-out: inhibition in library screening. On the procedure: Novel scaffold endowed with 5-HT7R activity was identified by screening of the in-house compound library in a single compound concentration of 1 µM in a competition radioligand binding assay using [^3H]5-CT and HEK293 cells overexpressing the human 5-HT7b receptors.

[1] abbreviates: HEK293 cells overexpressing human 5-HT7b receptors, at least two independent experiments in triplicate.

T1 sequence (P34969 1-432): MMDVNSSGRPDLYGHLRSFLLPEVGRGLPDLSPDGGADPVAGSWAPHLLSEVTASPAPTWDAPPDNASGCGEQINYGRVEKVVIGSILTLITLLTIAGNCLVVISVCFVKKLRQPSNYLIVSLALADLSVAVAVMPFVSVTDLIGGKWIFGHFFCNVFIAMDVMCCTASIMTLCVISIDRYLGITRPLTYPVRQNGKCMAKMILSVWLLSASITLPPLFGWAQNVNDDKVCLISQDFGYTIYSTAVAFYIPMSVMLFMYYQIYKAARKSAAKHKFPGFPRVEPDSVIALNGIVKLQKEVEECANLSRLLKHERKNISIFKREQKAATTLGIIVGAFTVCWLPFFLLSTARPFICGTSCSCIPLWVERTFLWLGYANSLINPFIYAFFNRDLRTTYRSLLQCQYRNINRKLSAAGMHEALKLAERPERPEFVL

Take “4-(3-Furyl)-2,4-bis(4-methylpiperazin-1-yl)pyrimidine [Compound 20]”: under setting [1], the Ki (usually a measure of affinity in units of concentration, obtained from inhibition or displacement) is more than 10000 nM.
`c1cc(-c2ccoc2)nc(N2CCNCC2)n1` [Compound 1, 4-(3-Furyl)-2-(piperazin-1-yl)pyrimidine]: the Ki under setting [1] was found to be 9 ± 2 nM.
Regarding `CN1CCN(c2nccc(-c3ccoc3)n2)CC1` [Compound 2, 4-(3-Furyl)-2-(4-methylpiperazin-1-yl)pyrimidine], the inhibition (usually the change of the read-out against control, counted positive when it falls) at 1 µM is more than 60%. Also, the Ki under setting [1] stood at 7.2 ± 1.4 nM.
On to `CCN1CCN(c2nccc(-c3ccoc3)n2)CC1` [Compound 3, 2-(4-Ethylpiperazin-1-yl)-4-(3-furyl)pyrimidine], for which the Ki under setting [1] came out at 10 ± 1 nM.
Still for that read-out and setting: with `CCCN1CCN(c2nccc(-c3ccoc3)n2)CC1` [Compound 4, 4-(3-Furyl)-2-(4-propylpiperazin-1-yl)pyrimidine] the figure was 5.3 ± 0.9 nM; with `c1ccc(CN2CCN(c3nccc(-c4ccoc4)n3)CC2)cc1` [Compound 5, 2-(4-Benzylpiperazin-1-yl)-4-(3-furyl)pyrimidine], 25 ± 3 nM; with `O=C(c1ccccc1)N1CCN(c2nccc(-c3ccoc3)n2)CC1` [Compound 6, 2-(4-Benzoylpiperazin-1-yl)-4-(3-furyl)pyrimidine], 1400 ± 173 nM.
As to `c1ccc(CCCN2CCN(c3nccc(-c4ccoc4)n3)CC2)cc1` [Compound 7], under setting [1], the Ki is 1.6 ± 0.2 nM.
Consider `OCCN1CCN(c2nccc(-c3ccoc3)n2)CC1` [Compound 8, 2-[4-(2-Hydroxyethyl)piperazin-1-yl]-4-(3-furyl)pyrimidine], for which the Ki under setting [1] was determined as 8.5 ± 1.1 nM.
On the same count and under the same terms, with `CCOC(=O)CCN1CCN(c2nccc(-c3ccoc3)n2)CC1` [Compound 9, Ethyl 3-{4-{[4-(3-furyl)pyrimidin-2-yl]piperazin-1-yl}}propanoate] the figure was 8.9 ± 2.1 nM.
Consider `CCOC(=O)CCCCCN1CCN(c2nccc(-c3ccoc3)n2)CC1` [Compound 10], for which, under setting [1], the Ki came out at 1.4 ± 0.3 nM.
With `Cc1cc(-c2ccoc2)nc(N2CCN(C)CC2)n1` [Compound 11, 4-(3-Furyl)-6-methyl-2-(4-methylpiperazin-1-yl)pyrimidine], the inhibition at 1 µM is more than 60%. In addition, the Ki under setting [1] turned out to be 3.9 ± 0.7 nM.
With `CCCCCCc1cc(-c2ccoc2)nc(N2CCN(C)CC2)n1` [Compound 14, 4-(3-Furyl)-6-n-hexyl-2-(4-methylpiperazin-1-yl)pyrimidine], the inhibition constant Ki under setting [1] was 3.3 ± 0.5 nM.
For `CCC(C)c1cc(-c2ccoc2)nc(N2CCN(C)CC2)n1` (stereo not shown) [Compound 15, 4-sec-Butyl-6-(3-furyl)-2-(4-methylpiperazin-1-yl)pyrimidine], the Ki under setting [1] was 2.7 ± 0.5 nM.
Same read-out and setting: the value for `CN1CCN(c2nc(-c3ccoc3)cc(C(F)(F)F)n2)CC1` [Compound 16, 4-(3-Furyl)-2-(4-methylpiperazin-1-yl)-6-(trifluoromethyl)pyrimidine] was 8.3 ± 1.7 nM; that for `CN1CCN(c2nc(C#CC3=CCCCC3)cc(-c3ccoc3)n2)CC1` [Compound 17, 4-(Cyclohexenylethynyl)-6-(3-furyl)-2-(4-methylpiperazin-1-yl)pyrimidine] was 18 ± 3 nM.
Consider `CN1CCN(c2nc(-c3ccoc3)cc(-c3ccoc3)n2)CC1` [Compound 18, 4,6-Bis(3-furyl)-2-(4-methylpiperazin-1-yl)pyrimidine], for which the inhibition at 1 µM was more than 60%. For the same compound, the Ki under setting [1] is 22 ± 2 nM.
On to `CN1CCN(c2nc(-c3ccoc3)cc(N(C)C)n2)CC1` [Compound 19, 4-Dimethylamino-6-(3-furyl)-2-(4-methylpiperazin-1-yl)pyrimidine], for which the Ki under setting [1] was more than 10000 nM.
Same read-out and setting: the value for `CCCc1cnc(N2CCN(C)CC2)nc1-c1ccoc1` [Compound 21, 4-(3-Furyl)-2-(4-methylpiperazino)-5-propylpyrimidine] was 1330 ± 232 nM; that for `CCCCc1nc(N2CCN(C)CC2)nc(-c2ccoc2)c1CCC` [Compound 22, 4-n-Butyl-6-(3-furyl)-2-(4-methylpiperazino)-5-propylpyrimidine] was 1250 ± 116 nM; that for `Cc1occc1-c1ccnc(N2CCN(C)CC2)n1` [Compound 23, 4-(2-Methyl-3-furyl)-2-(4-methylpiperazin-1-yl)pyrimidine] was 1920 ± 373 nM.
On to `Cc1cc(-c2ccnc(N3CCN(C)CC3)n2)co1` [Compound 24, 4-(5-Methyl-3-furyl)-2-(4-methylpiperazin-1-yl)pyrimidine], for which the Ki under setting [1] was determined as 462 ± 54 nM.
Same read-out and setting: the value for `CCCCCCc1cc(-c2coc(C)c2)nc(N2CCN(C)CC2)n1` [Compound 25, 4-n-Hexyl-6-(5-methyl-3-furyl)-2-(4-methylpiperazin-1-yl)pyrimidine] was 12 ± 2 nM; that for `CN1CCN(c2nccc(-c3ccco3)n2)CC1` [Compound 26, 4-(2-Furyl)-2-(4-methylpiperazin-1-yl)pyrimidine] was 1020 ± 96 nM; that for `CCc1cc(-c2ccco2)nc(N2CCN(C)CC2)n1` [Compound 27, 4-Ethyl-6-(2-furyl)-2-(4-methylpiperazin-1-yl)pyrimidine] was 380 ± 44 nM.
As for `CCCCc1cc(-c2ccco2)nc(N2CCN(C)CC2)n1` [Compound 28, 4-n-Butyl-6-(2-furyl)-2-(4-methylpiperazin-1-yl)pyrimidine], the Ki under setting [1] came to 450 ± 63 nM.
On to `Cc1ccc(-c2ccnc(N3CCN(C)CC3)n2)o1` [Compound 29, 4-(5-Methyl-2-furyl)-2-(4-methylpiperazin-1-yl)pyrimidine], for which the Ki under setting [1] is 4230 ± 680 nM.
Take `CN1CCN(c2nccc(-c3ccsc3)n2)CC1` [Compound 30, 2-(Methylpiperazin-1-yl)-4-(3-thienyl)pyrimidine]: the inhibitory constant (Ki) under setting [1] came to 83 ± 9 nM.
For the compound `CCCCc1cc(-c2ccsc2)nc(N2CCN(C)CC2)n1` [Compound 31, 4-n-Butyl-2-(methylpiperazin-1-yl)-6-(3-thienyl)pyrimidine], under setting [1], the Ki was determined as 15 ± 3 nM.
In the case of `CN1CCN(c2nccc(-c3cccs3)n2)CC1` [Compound 32, 2-(Methylpiperazin-1-yl)-4-(2-thienyl)pyrimidine], under setting [1], the Ki came out at 480 ± 65 nM.
For the compound `CN1CCN(c2nccc(-c3ccccc3O)n2)CC1` [Compound 33, 4-(2-Hydroxyphenyl)-2-(4-methylpiperazin-1-yl)pyrimidine], under setting [1], the Ki is more than 10000 nM.
Turning to `CN1CCN(c2nccc(-c3cccc(O)c3)n2)CC1` [Compound 34, 4-(3-Hydroxyphenyl)-2-(4-methylpiperazin-1-yl)pyrimidine], the inhibition constant Ki under setting [1] is more than 10000 nM.
On to `CN1CCN(c2nccc(-c3ccc(O)cc3)n2)CC1` [Compound 35, 4-(4-Hydroxyphenyl)-2-(4-methylpiperazin-1-yl)pyrimidine], for which the Ki under setting [1] was more than 10000 nM.
Same read-out and setting: with `CN1CCN(c2nccc(-c3cc4ccccc4o3)n2)CC1` [Compound 36, 4-(Benzofuran-2-yl)-2-(4-methylpiperazin-1-yl)pyrimidine] the figure was 7460 ± 1230 nM.
As to `CN1CCN(c2nccc(-c3cc4ccccc4s3)n2)CC1` [Compound 37, 4-(Benzothiophen-2-yl)-2-(4-methylpiperazin-1-yl)pyrimidine], the inhibitory constant (Ki) under setting [1] was found to be 5280 ± 820 nM.
With `CN1CCN(c2nccc(-c3cc4ccccc4n3C)n2)CC1` [Compound 38, 4-(1-Methylindol-2-yl)-2-(4-methylpiperazin-1-yl)pyrimidine], the Ki under setting [1] was found to be 1530 ± 125 nM.
Regarding `CN1CCN(c2nccc(-c3cccnc3)n2)CC1` [Compound 39, 2-(4-Methylpiperazin-1-yl)-4-(pyridin-3-yl)pyrimidine], the Ki under setting [1] is 780 ± 94 nM.
Same read-out and setting: with `CN1CCN(c2nccc(-c3nccs3)n2)CC1` [Compound 40, 2-(4-Methylpiperazin-1-yl)-4-(thiazol-2-yl)pyrimidine] the figure was more than 10000 nM.
Take `CN1CCN(c2nccc(-n3ccnc3)n2)CC1` [Compound 41, (1H-Imidazol-1-yl)-2-(4-methylpiperazin-1-yl)pyrimidine]: the Ki under setting [1] came to 1980 ± 275 nM.
In the case of `CN1CCCN(c2nccc(-c3ccoc3)n2)CC1` [Compound 42, 4-(3-Furyl)-2-(4-methylhomopiperazin-1-yl)pyrimidine], the Ki under setting [1] was found to be 148 ± 17 nM.
Regarding `c1cc(-c2ccoc2)nc(N2CCCCC2)n1` [Compound 43, 4-(3-Furyl)-2-(piperidin-1-yl)pyrimidine], under setting [1], the “Ki ± S.D. 5-HT7 binding affinity” value was “no affinity” and the inhibition constant (Ki) is more than 10000 nM.
Regarding `c1cc(-c2ccoc2)nc(NCCN2CCOCC2)n1` [Compound 45, 4-(3-Furyl)-N-[2-(morpholin-4-yl)ethyl]pyrimidin-2-amine], the Ki under setting [1] came to 2460 ± 343 nM.
The same measure, in the same setting: with `c1cc(-c2ccoc2)nc(NCCCc2ncc[nH]2)n1` [Compound 46, 4-(3-Furyl)-N-[3-(1H-imidazol-2-yl)propyl]pyrimidin-2-amine] the figure was 1280 ± 187 nM.
Same read-out and setting: with `c1cc(-c2ccoc2)nc(N2CC[N+]3(CCOCC3)CC2)n1` [Compound 47, 4-[4-(3-Furyl)pyrimidin-2-yl]piperazine-1-spiro-1-morpholinium iodide] the figure was 299 ± 42 nM; with `CN1CCN(c2nc(-c3ccoc3)c3ccccc3n2)CC1` [Compound 48, 4-(3-Furyl)-2-(methylpiperazin-1-yl)quinazoline], 1910 ± 235 nM.
Consider `CN1CCN(c2nc(N3CCN(C)CC3)c3ccccc3n2)CC1` [Compound 49, 2,4-bis(4-Methylpiperazin-1-yl)quinazoline], for which, under setting [1], the Ki turned out to be 7540 ± 1140 nM.
Turning to `CN(C)CCc1nc(N2CCN(C)CC2)nc2ccccc12` [Compound 50], under setting [1], the Ki is more than 10000 nM.
On to `CN1CCN(c2cc(-c3ccoc3)ccn2)CC1` [Compound 51, 4-(3-Furyl)-2-(4-methylpiperazin-1-yl)pyridine], for which the inhibitory constant (Ki) under setting [1] was 17 ± 2 nM.
As to `CN1CCN(c2cc(-c3ccco3)ccn2)CC1` [Compound 52, 4-(2-Furyl)-2-(4-methylpiperazin-1-yl)pyridine], the Ki under setting [1] was found to be 307 ± 42 nM.
Regarding `CN1CCN(c2cc(-c3cccs3)ccn2)CC1` [Compound 53, 2-(4-Methylpiperazin-1-yl)-4-(2-thienyl)pyridine], the inhibitory constant (Ki) under setting [1] stood at 396 ± 55 nM.
Take `Cc1cc(-c2ccoc2)cc(N2CCN(C)CC2)n1` [Compound 54, 4-(3-Furyl)-2-methyl-6-(4-methylpiperazin-1-yl)pyridine]: the inhibitory constant (Ki) under setting [1] came to 8 ± 1 nM.
